# Source: patent US7605272B2, “IGF-1R inhibitor” (Kyowa Hakko Kirin Co., Ltd., priority 2005, dated 2009)
# Read-outs that look alike come from different tables or passages of the source.
# Legend:
# [1] = system: NCI-H929; test: Cytostatic activity on human multiple myeloma cell line NCI-H929 (WST-1); type: cell-based; conditions: for inhibition at 1 µM: Homo sapiens, NCI-H929, 72 h, read-out: cytostatic rate (%) H929 (1 μmol/L)
# Method in brief: (§1)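 Cells pre-cultured 24 h at 37 °C, 5% CO2, then exposed 72 h to compound at final 1 or 10 μmol/L (0.1% DMSO). WST-1 added for 2 h, absorbance at 450 nm (ref 690 nm). Cytostatic rate = 100 minus relative growth, with DMSO control as 100% and blank as 0%.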
# [2] = system: KMS-11; test: Cytostatic activity on human multiple myeloma cell line KMS-11 (WST-1); type: cell-based; conditions: for inhibition at 1 µM: Homo sapiens, KMS-11, 72 h, read-out: cytostatic rate (%) KMS-11 (1 μmol/L)
# Method in brief: as §1
# [3] = target: T1, IGF-1R (Homo sapiens, UniProt P08069); test: IGF-1R inhibitory activity (kinase reaction, time-resolved fluoroimmunoassay); type: biochemical; conditions: IGF-1R active recombinant enzyme, test compound 10 μmol/L
# T1 construct: purchased Upstate Co. 14-465
# T1 sequence (P08069 959-1367 limits assumed): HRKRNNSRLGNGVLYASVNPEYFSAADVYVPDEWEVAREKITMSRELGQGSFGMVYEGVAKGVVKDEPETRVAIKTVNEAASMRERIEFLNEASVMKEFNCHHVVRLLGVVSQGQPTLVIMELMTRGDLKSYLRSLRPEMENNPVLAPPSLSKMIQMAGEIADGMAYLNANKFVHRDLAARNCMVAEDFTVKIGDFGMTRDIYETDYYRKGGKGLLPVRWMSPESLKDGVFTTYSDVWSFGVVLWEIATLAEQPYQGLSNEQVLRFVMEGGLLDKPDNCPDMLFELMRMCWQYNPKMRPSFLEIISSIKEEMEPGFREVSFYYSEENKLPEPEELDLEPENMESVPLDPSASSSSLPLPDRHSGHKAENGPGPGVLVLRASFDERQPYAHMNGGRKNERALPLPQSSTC
# Method in brief: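 Compounds were tested at a single 10 μmol/L concentration. Each was incubated with recombinant IGF-1R (200 μg/L), 10 mmol/L ATP, MgCl2/MnCl2 and Na3VO4 (pH 7.5) on immobilized poly(Glu-Tyr) peptide for 30 min at 24° C. Eu-anti-phosphotyrosine time-resolved fluorescence (340/615 nm) gave relative activity against no-compound and no-enzyme wells, reported as % inhibition.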
# [4] = NCI-H929 cells, test compound 1 μmol/L, WST-1
# [5] = KMS-11 cells, test compound 1 μmol/L, WST-1
inhibition at 10 µM [3] [%],SMILES,"inhibition at 1 µM ([1]; 1 μmol/L, 72 hours) [%]","inhibition at 1 µM ([2]; 1 μmol/L, 72 hours) [%]","inhibition at 1 µM [1, 4] [%]","inhibition at 1 µM [2, 5] [%]","cytostatic rate (%) H929 (1 μmol/L) [1, 4] [%]","cytostatic rate (%) KMS-11 (1 μmol/L) [2, 5] [%]",inhibitory activity (%) at 10 μmol/L [3] [%]
100,"CC(=O)N1CCC(NC(=O)c2ccc(/C=C/c3n[nH]c4ccccc34)c(NC(=O)c3sccc3C)c2)CC1 [Compound 303, (E)-N-{5-[N-(1-acetylpiperidin-4-yl)carbamoyl]-2-[2-(1H-indazol-3-yl)vinyl]phenyl}-3-methylthiophene-2-carboxamide]",115,106,,,,,
102,"COCCCN1CCN(Cc2ccc(/C=C/c3n[nH]c4ccccc34)c(NC(=O)c3sccc3C)c2)CC1 [Compound 304, (E)-N-{2-[2-(1H-indazol-3-yl)vinyl]-5-[4-(3-methoxypropyl)piperazin-1-ylmethyl]phenyl}-3-methylthiophene-2-carboxamide]",115,105,,,,,
100,"CN(CCO)c1ccc(/C=C/c2n[nH]c3ccccc23)c(NC(=O)c2cccn2C)c1 [Compound 305, (E)-N-{5-[N-(2-hydroxyethyl)methylamino]-2-[2-(1H-indazol-3-yl)vinyl]phenyl}-1-methyl-1H-pyrrole-2-carboxamide]",,,118,110,,,
100,"Nc1cccc2c1C(=O)N(c1cc(CN3CCN(CCCO)CC3)ccc1/C=C/c1n[nH]c3ccccc13)C2=O [Compound 306, (E)-4-amino-2-{5-[4-(3-hydroxypropyl)piperazin-1-ylmethyl]-2-[2-(1H-indazol-3-yl)vinyl]phenyl}isoindole-1,3-dione]",,,116,112,,,
100,"Nc1cccc2c1C(=O)N(c1cc(CN3CCN(CCO)CC3)ccc1/C=C/c1n[nH]c3ccccc13)C2=O [Compound 307, (E)-4-amino-2-{5-[4-(2-hydroxyethyl)piperazin-1-ylmethyl]-2-[2-(1H-indazol-3-yl)vinyl]phenyl}isoindole-1,3-dione]",,,114,110,,,
97.1,"COCCCN1CCN(C(=O)c2ccc(/C=C/c3n[nH]c4ccccc34)c(N3C(=O)c4cccc(N)c4C3=O)c2)CC1 [Compound 309, (E)-4-amino-2-{2-[2-(1H-indazol-3-yl)vinyl]-5-[4-(3-methoxypropyl)piperazin-1-ylcarbonyl]phenyl}isoindole-1,3-dione]",,,115,113,,,

# Continued, molecule first:
SMILES,inhibition at 10 µM [3] [%],"inhibition at 1 µM ([1]; 1 μmol/L, 72 hours) [%]","inhibition at 1 µM ([2]; 1 μmol/L, 72 hours) [%]","inhibition at 1 µM [1, 4] [%]","inhibition at 1 µM [2, 5] [%]","cytostatic rate (%) H929 (1 μmol/L) [1, 4] [%]","cytostatic rate (%) KMS-11 (1 μmol/L) [2, 5] [%]",inhibitory activity (%) at 10 μmol/L [3] [%]
"CCN(CC)CCCOc1cc(NC(=O)c2sccc2C)c(/C=C/c2n[nH]c3ccccc23)cc1OC [Compound 300, (E)-N-{5-[3-(diethylamino)propyloxy]-2-[2-(1H-indazol-3-yl)vinyl]-4-methoxyphenyl}-3-methylthiophene-2-carboxamide]",97.2,119,116,,,,,
"CC(=O)NC1CCN(C(=O)c2ccc(/C=C/c3n[nH]c4ccccc34)c(NC(=O)c3sccc3C)c2)CC1 [Compound 301, (E)-N-{5-[4-(acetylamino)piperidin-1-ylcarbonyl]-2-[2-(1H-indazol-3-yl)vinyl]phenyl}-3-methylthiophene-2-carboxamide]",98.3,119,100,,,,,
"Cc1ccsc1C(=O)Nc1cc(CN2CCN(C[C@H](O)CO)CC2)ccc1/C=C/c1n[nH]c2ccccc12 [Compound 302, (E)-(S)—N-{5-[4-(2,3-dihydroxypropyl)piperazin-1-ylmethyl]-2-[2-(1H-indazol-3-yl)vinyl]phenyl}-3-methylthiophene-2-carboxamide]",101,115,99.4,,,,,
"Cn1cccc1C(=O)Nc1cc(N(CCO)CCN2CCOCC2)ccc1/C=C/c1n[nH]c2ccccc12 [Compound 308, (E)-{5-[N-(2-hydroxyethyl)-2-(morpholin-4-yl)ethylamino]-2-[2-(1H-indazol-3-yl)vinyl]phenyl}-1-methyl-1H-pyrrole-2-carboxamide]",,,,,,118.3,128.1,99.1
